Reference: paper PMC10622577, “Structural basis for stabilisation of the RAD51 nucleoprotein filament by BRCA2” (Nature Communications, 2023)

Columns and labels:
RAD51 D184A, D187A NPFs = assay: SPR of TR2 binding to RAD51 D184A, D187A NPFs; set-up: species or system human
Method: We investigated further the effect of the acidic patch mutations on TR2 binding using surface plasmon resonance (SPR). We developed an SPR assay whereby increasing amounts of TR2 peptide were added to RAD51 NPFs that had been assembled on biotinylated DNA coupled to a streptavidin chip (Supplementary Fig. 3A, Supplementary Table 1). […] We used the same SPR assay to assess the effect of the mutations on the ability of BRC4 to disrupt an established filament (Supplementary Fig. 4A, Supplementary Table 1).
All SPR experiments were performed using a Biacore T200 instrument and an S-series SA (Streptavidin) sensor chip. A single chip was used to immobilise biotinylated single- and double-stranded DNA in buffer: 25 mM HEPES pH 7.4, 100 mM NaCl, 1 mM EDTA. ssDNA and dsDNA were immobilised in different channels to a signal of 120 RU and 250 RU, respectively.
All binding experiments were performed in CMA buffer: 25 mM HEPES pH 7.4, 100 mM NaCl, 2 mM DTT, 2 mM ATP, 5 mM CaCl2, 5 mM MgCl2. 1 μM RAD51 (wild-type, D184A or D184A, D187A mutant proteins) was injected for 120 seconds followed by buffer for 120 seconds at a flow rate of 10 μl/min. TR2 or BRC4 peptides were then injected in a concentration titration series of 0.1, 0.25, 0.5, 0.75, 1, 2, 3, 5, 7.5, 10 and 15 μM for 120 seconds at a flow rate of […] followed by a dissociation time of 240 seconds. After each injection of BRCA2 peptide, the sensor chip was regenerated with buffer comprising of CMA buffer with 1 M NaCl for 120 seconds at a flow rate of 100 μl/min. All experiments were performed in triplicate.
For the BRCA2 TR2 titration series, blank-subtracted sensorgrams were used to extract the maximum response accumulated after each TR2 injection. TR2 response accumulation was corrected to account for differences in RAD51 filament formation between runs, by multiplying the maximum response by a scale factor calculated as the ratio between mean RAD51 filament accumulation on each DNA substrate and the mean RAD51 accumulated for each mutant for each triplicate. The first experiment of the triplicate series for binding of TR2 to the D184A, D187A RAD51 NPF on dsDNA was discounted due to a failed peptide injection.
All graph plotting and statistical analysis was performed using Prism 9.3.1 (GraphPad). […] Data for each mutant on each substrate were fitted with a non-linear one-phase exponential decay.
Supplementary table 1. DNA oligos and peptides
Oligos Size (nt) Sequence (5’ – 3’)
D184A […] (forward),
D184A, D187A […] (forward),
EMSA, SPR, CryoEM (micrographs, […]
Supplementary figs. 3, 4 (ssDNA) 60 Biotin-[…]
Supplementary figs. 3, 4 (dsDNA) 60 Biotin-[…],
Panel A (ssDNA) 32 Cy5-[…]
Panel B (dsDNA) 50 […]-Cy3,
Panel B (ssDNA) 60 Biotin-[…]-
Panel B (dsDNA) 60 Biotin,
Panel C (ssDNA) 32 Biotin-[…]-Biotin […]

RAD51 S181C = assay: RAD51–TR2 disulphide cross-linking, SDS-PAGE; set-up: species or system human; details: RAD51 S181C 10 μM, 0.5 μM ssDNA, 1.25 μM Cy3-TR2, 2 mM hydrogen peroxide 5 min; pH 7.5; non-reducing SDS-PAGE; repeated three times
Description: To further validate our model of the RAD51–TR2 interaction, we mutated RAD51 S181 to a cysteine to enable disulphide formation with TR2 C3304, which would support its presence at the TR2-RAD51 interface, as identified in the structure.
Fig. 5 Structure-guided BRCA2 TR2 cross-linking to RAD51. A Drawing of the RAD51–TR2 interface, highlighting that amino acids BRCA2 C3304 and RAD51 S181 are spatially close, so that the RAD51 S181C mutant can form a disulphide bridge with C3304 in the TR2 peptide. B SDS-PAGE analysis of cross-linking reactions between RAD51 S181C and TR2 in the presence of hydrogen peroxide. Wild-type RAD51 and the reducing agent DTT were used as controls. Protein bands were visualised with Coomassie Blue. C Same experiment as in B, visualised with 532 nm excitation of the Cy3-labelled TR2 peptide. Experiment was repeated three times. Source data are provided as a Source Data file.
Cross-linking reactions were prepared in buffer: 25 mM HEPES pH 7.5, 150 mM NaCl, 2 mM ATP, 5 mM CaCl2, supplemented with 0.5 μM ssDNA. WT or S181C RAD51 was added to a final concentration of 10 μM and incubated for 15 minutes at room temperature. […] Each crosslinked sample was analysed by SDS-PAGE, using gel-loading dye with DTT (reducing) or without DTT (non-reducing), on a 12% Bis-Tris SDS-PAGE gel. […]

DNA = details: cited from earlier work
Description: Our cryoEM maps let us model a highly conserved portion of BRCA2 TR2 that spans residues F3289 to C3304. TR2 sequence conservation extends N-terminally to our model, up to K3263. […] Indeed, the bi ...

## DDQKNCKKRRALDFLSRLPLPPPVSPICTFVSPAAQKAFQPPRSCGTKY [TR2, BRCA2 TR2 peptide spanning amino acids 3260 to 3308]
RAD51 D184A, D187A NPFs; D187A compared with single D184A, n = 3
  TR2 binding by SPR relative to D184A mutant: weaker binding compared with the single D184A mutant
RAD51 D184A, D187A NPFs; D187A, Biacore T200, streptavidin chip, biotinylated ss- or dsDNA, CMA buffer pH 7.4, 1 μM RAD51, TR2 0.1-15 μM, 120 s, n = 3 (one dsDNA run discounted, failed injection)
  TR2 binding by SPR relative to wild-type: clear reduction in TR2 binding
RAD51 D184A, D187A NPFs; D187A, SPR Fig. 1E, authors' response to reviewers
  residual TR2 binding: retain a degree of binding
RAD51 D184A, D187A NPFs; D187A, ssDNA compared with dsDNA, n = 3
  impact of mutation on TR2 binding by SPR, ssDNA versus dsDNA: stronger for NPFs formed on ssDNA
RAD51 S181C
  formation of crosslinked RAD51–TR2 species: readily detect formation of a crosslinked RAD51–TR2 species
DNA
  DNA-binding activity of TR2: harbours a DNA-binding activity centred on residues 3266-KKRR-3269
